# From US20240277713A1 (Kadmon Corporation, LLC, priority 2022, published 2024)
# Where two headings read alike, the source gives them in different places.
# Legend:
# Sprague-Dawley rats = assay: Pilot prenatal developmental toxicity study in Sprague-Dawley rats (Example 1); type: in vivo, rat
# Excerpt: A total of 52 Sprague-Dawley (SD) rats were used in this study.
# Observations of the animals included cageside assessments (twice daily), evaluation of clinical signs (daily from GD 6 through 20), body weights (at arrival—GD 2 or 3—and GD 6, 9, 12, 15, 18, and 20), food consumption (GD 6-20), and anatomical pathology including a uterine examination. […] All fetuses were given an external examination.
# [1] = Pharmacokinetics in chronic GVHD patients; type: in vivo, human
# rats = assay: General toxicology studies in rats; type: in vivo, rat
# OATP1B1 = biological target: T1, OATP1B1 (Homo sapiens, UniProt Q9Y6L6); assay: Transporter systems in vitro: OATP1B1; type: in vitro ADME; conditions: clinically relevant concentrations
# T1 sequence (Q9Y6L6 1-691): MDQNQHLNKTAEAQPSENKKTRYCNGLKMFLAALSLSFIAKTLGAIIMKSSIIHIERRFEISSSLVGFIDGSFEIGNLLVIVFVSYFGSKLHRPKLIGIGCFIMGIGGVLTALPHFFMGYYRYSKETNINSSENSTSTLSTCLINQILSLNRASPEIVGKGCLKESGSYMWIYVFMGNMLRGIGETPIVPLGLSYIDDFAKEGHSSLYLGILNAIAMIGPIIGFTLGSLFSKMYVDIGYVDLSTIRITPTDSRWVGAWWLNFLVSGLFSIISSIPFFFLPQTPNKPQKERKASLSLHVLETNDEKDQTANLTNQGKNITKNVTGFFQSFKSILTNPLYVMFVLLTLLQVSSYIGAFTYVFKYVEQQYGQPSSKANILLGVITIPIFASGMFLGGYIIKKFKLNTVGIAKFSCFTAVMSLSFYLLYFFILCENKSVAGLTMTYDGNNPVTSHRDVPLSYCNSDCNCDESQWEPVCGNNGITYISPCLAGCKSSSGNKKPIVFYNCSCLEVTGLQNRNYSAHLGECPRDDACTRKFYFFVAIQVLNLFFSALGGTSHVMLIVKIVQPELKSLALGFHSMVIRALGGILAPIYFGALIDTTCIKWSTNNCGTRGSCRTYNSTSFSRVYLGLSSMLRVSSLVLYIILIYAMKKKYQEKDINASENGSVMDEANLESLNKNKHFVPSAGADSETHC
# bacterial = assay: in vitro bacterial mutagenicity (Ames) assay; type: cell-based
# [2] = Toxicokinetic evaluation in pregnant rabbits (Example 4); type: in vivo, rabbit; conditions: for Cmax / AUC(0-t): female, New Zealand White, rabbit, plasma, po; for AUC(0-t): read-out: Mean AUC0-24 in plasma of pregnant rabbits
# Experimental: The dose levels for the treated groups were 50, 125, 225, mg base/kg/day at a dose volume of 10 mL/kg. The control group received the vehicle in the same manner as the treated groups. […] Individual doses were based on the most recent body weights.
# Observations of the animals included clinical signs, body weights, food consumption, and anatomical pathology including a uterine examination. […] All fetuses were given an external, visceral, and skeletal examination.
# human serum albumin = human serum albumin (Homo sapiens, UniProt P02768); assay: Binding to human serum albumin in vitro; type: in vitro ADME
# [3] = test system: New Zealand White rabbits; assay: Pilot prenatal developmental toxicity study in New Zealand White rabbits with non-pregnant dose range finding phase (Example 2)
# Experimental: The study was conducted in two phases: Phase A was a dose range finding tolerance study with non-pregnant rabbits, and Phase B was the pilot developmental toxicity study.
# All fetuses were given the appropriate external examination.
# [4] = 50 mg base/kg, GD 18, belumosudil 50 mg base/kg oral
# [5] = 50 mg/kg/day, GD 6, belumosudil 50 mg base/kg oral
# [6] = 125 mg/kg/day, GD 6, belumosudil 125 mg base/kg oral
# [7] = 125 mg/kg/day, GD 18, belumosudil 125 mg base/kg oral
# [8] = 225 mg/kg/day, GD 6, belumosudil 225 mg base/kg oral
# [9] = 225 mg/kg/day, GD 18, belumosudil 225 mg base/kg oral
# Sequence of human serum albumin (P02768 25-609): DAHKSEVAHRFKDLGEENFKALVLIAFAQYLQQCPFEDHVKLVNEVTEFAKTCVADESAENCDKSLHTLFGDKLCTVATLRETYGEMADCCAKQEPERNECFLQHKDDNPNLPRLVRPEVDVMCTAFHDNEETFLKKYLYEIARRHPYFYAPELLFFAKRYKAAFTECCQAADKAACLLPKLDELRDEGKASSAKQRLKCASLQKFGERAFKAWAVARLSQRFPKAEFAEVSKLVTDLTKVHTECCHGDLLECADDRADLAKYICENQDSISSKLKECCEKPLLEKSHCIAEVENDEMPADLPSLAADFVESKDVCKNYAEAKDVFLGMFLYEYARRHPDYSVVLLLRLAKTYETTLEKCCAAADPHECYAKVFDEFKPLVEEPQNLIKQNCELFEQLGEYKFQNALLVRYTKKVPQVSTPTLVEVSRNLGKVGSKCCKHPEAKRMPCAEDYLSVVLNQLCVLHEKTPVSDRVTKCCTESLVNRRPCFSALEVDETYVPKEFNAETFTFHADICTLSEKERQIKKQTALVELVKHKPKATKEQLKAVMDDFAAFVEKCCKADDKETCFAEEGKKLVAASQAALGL
smiles,measurement,setting,value
"CC(C)NC(=O)COc1cccc(-c2nc(Nc3ccc4[nH]ncc4c3)c3ccccc3n2)c1 [belumosudil, 2-{3-[4-(1H-indazol-5-ylamino)-2-quinazolinyl]phenoxy}-N-(propan-2-yl) acetamide]",Mean post-implantation loss,Sprague-Dawley rats; 25 mg base/kg/day,4.00 % per litter
same,Mean viable litter size,Sprague-Dawley rats; 25 mg base/kg/day,13.2
same,combined mean fetal body weight (males and females),Sprague-Dawley rats; 25 mg base/kg/day,4.37 g
same,mean fetal body weight (female fetuses),Sprague-Dawley rats; 25 mg base/kg/day,4.19 g
same,Mean post-implantation loss,Sprague-Dawley rats; 50 mg base/kg/day,11.62 % per litter
same,Mean viable litter size,Sprague-Dawley rats; 50 mg base/kg/day,11.6
same,combined mean fetal body weight (males and females),Sprague-Dawley rats; 50 mg base/kg/day,4.50 g
same,litter incidence of external fetal malformations,Sprague-Dawley rats; 50 mg base/kg/day,40%
same,mean fetal body weight (female fetuses),Sprague-Dawley rats; 50 mg base/kg/day,4.39 g
same,Mean post-implantation loss,Sprague-Dawley rats; 150 mg base/kg/day,4.51 % per litter
same,Mean viable litter size,Sprague-Dawley rats; 150 mg base/kg/day,12.2
same,combined mean fetal body weight (males and females),Sprague-Dawley rats; 150 mg base/kg/day,4.22 g
same,litter incidence of external fetal malformations,Sprague-Dawley rats; 150 mg base/kg/day,20%
same,maternal toxicity,Sprague-Dawley rats; 150 mg base/kg/day,moderate
same,mean body weights,Sprague-Dawley rats; 150 mg base/kg/day,reduced throughout gestation
same,mean fetal body weight (female fetuses),Sprague-Dawley rats; 150 mg base/kg/day,4.18 g
same,Mean post-implantation loss,Sprague-Dawley rats; 300 mg base/kg/day,24.51 % per litter
same,Mean viable litter size,Sprague-Dawley rats; 300 mg base/kg/day,10.0
same,clinical signs,Sprague-Dawley rats; 300 mg base/kg/day,"unkempt and/or thin appearance, and hunched posture"
same,combined mean fetal body weight (males and females),Sprague-Dawley rats; 300 mg base/kg/day,3.42 g
same,litter incidence of external fetal malformations,Sprague-Dawley rats; 300 mg base/kg/day,25%
same,"maternal, embryo, and fetal toxicity",Sprague-Dawley rats; 300 mg base/kg/day,excessive
same,"mean body weight values, body weight gains and food consumption",Sprague-Dawley rats; 300 mg base/kg/day,adversely affected at every interval
same,mean fetal body weight (female fetuses),Sprague-Dawley rats; 300 mg base/kg/day,3.34 g
same,maternal toxicity,Sprague-Dawley rats; 25 and 50 mg base/kg/day,slight
same,mean body weight gains and food consumption,"Sprague-Dawley rats; 25 and 50 mg base/kg/day, GD 6-9, 6-18, 6-20",slightly reduced
same,maternal necropsy findings,Sprague-Dawley rats; any treated group,No adverse maternal necropsy findings
same,"doses at which fetal malformations were observed (absence of anus and tail, omphalocele, dome shaped head)","Sprague-Dawley rats; pilot study, pregnant rats, oral",≥ 50 mg/kg/day
same,mean (% CV) steady-state AUC,[1]; 200 mg once daily,22700 (48%) h·ng/mL
same,mean (% CV) steady-state Cmax,[1]; 200 mg once daily,2390 (44%) ng/mL
same,"pharmacokinetics with regard to age, sex, weight, or mild to moderate renal impairment","[1]; age 18 to 77 years, weight 38.6 to 143 kg",No clinically significant differences
same,Tmax,"[1]; human, in vivo, oral, 200 mg once daily or twice daily, read-out: Median Tmax at steady state",1.26 to 2.53 h
same,mean elimination half-life,"[1]; patients, % CV 39%",19 h
same,clearance,"[1]; patients, % CV 46%",9.83 L/h
same,dose with decreased follicular development in ovaries,rats,275 mg/kg/day
same,OATP1B1 inhibition,OATP1B1,inhibits
same,"genotoxicity, bacterial mutagenicity (Ames) assay",bacterial,not genotoxic
same,Cmax,[2]; [4],437 ng/mL
same,AUC(0-t),[2]; [4],1590 ng·h/mL
same,Cmax,[2]; [5],919 ng/mL
same,AUC(0-t),[2]; [5],3870 ng·h/mL
same,Cmax,[2]; [6],3030 ng/mL
same,AUC(0-t),[2]; [6],21400 ng·h/mL
same,Cmax,[2]; [7],1670 ng/mL
same,AUC(0-t),[2]; [7],9290 ng·h/mL
same,Cmax,[2]; [8],4140 ng/mL
same,AUC(0-t),[2]; [8],55700 ng·h/mL
same,Cmax,[2]; [9],2580 ng/mL
same,AUC(0-t),[2]; [9],23500 ng·h/mL
same,accumulation after multiple dosing of belumosudil,[2]; pregnant rabbits,no apparent accumulation
same,binding to human serum albumin,human serum albumin,99.9%
same,maternal toxicity,"[3]; 25 or 50 mg base/kg/day, GD 6-18",no toxicologically relevant maternal toxicity was observed
same,maternal response,"[3]; 100 and 250 mg base/kg/day, dose-dependent","reduced body weight gain/loss, decreased food consumption, clinical signs"
same,treatment-related effects,"[3]; Phase A, 300 and 400 mg base/kg/day",slight body weight losses and decreased food consumption
same,embryo or fetal toxicity,"[3]; Phase B, any dose level (25-250 mg base/kg/day)",no treatment-related embryo or fetal toxicity was apparent
same,NOAEL for developmental toxicity,[3]; pregnant rabbits,250 mg base/kg/day
same,NOAEL for maternal toxicity,[3]; pregnant rabbits,50 mg base/kg/day
same,survival,"[3]; rabbit, in vivo",not affected
